In US20230109717A1 (GAIA BioMedicine Inc., priority 2020, published 2023):

Test system: highly active NK cells
Experiment: Viability of freeze-thawed highly active NK cells (7-AAD staining, flow cytometry, FlowJo)
Settings: collect. method 2
Protocol: The highly activated NK cells (1×10^5 cells/well) thawed under each condition were centrifuged on a 96-well plate (IWAKI, 4870-800SP), the supernatant was removed, and then a 7-amino-actinomycin D (7-AAD) solution diluted with PBS (Beckman Coulter, A 07704) was added to the cells to suspend them, and the suspension was incubated at room temperature (room temperature means 15 to 25° C., the same shall apply in the following experiments) for 20 minutes. The stained cells were measured by using a flow cytometer (BD LSR Fortessa, BD Biosciences).
The NK cells frozen for 48 hours or longer were thawed in a water bath at 37° C., and 1×10^5 cells were dispensed on a 96-well plate (IWAKI) immediately after the thawing. […] The cells dispensed immediately after thawing were centrifuged immediately after they were dispensed, and the cells of the other four groups were centrifuged after incubation of 3 hours, measurement was performed by the method for staining with 7-AAD described above, and the results were analyzed with the FlowJo software (FLOWJO, LLC) to calculate viable cell rates.
The NK cells frozen for 48 hours or longer were thawed at 37° C. in a water bath, and then 1×10^5 of the cells were dispensed on a 96-well plate immediately after the thawing. […] The cells dispensed immediately after thawing were centrifuged immediately after they were dispensed, and the cells of the other four groups were centrifuged after incubation of 3 hours, measurement was performed by the method for staining with 7-AAD described above, and the results were analyzed with the FlowJo software (FLOWJO, LLC) to calculate viable cell rates.
Then, measurement was performed by the method for staining with 7-AAD described above, and the results were analyzed with the FlowJo software. […] Then, measurement was performed by the method for staining with 7-AAD described above, and the results were analyzed with the FlowJo software. (8-3) The experiment was performed in the same manner as in (8-1), but (1) PBS, (2) Plasma-Lyte A, (3) Plasma-Lyte A containing 27.7 mEq/L of lactic acid (Nacalai Tesque, 20006-62), (4) Plasma-Lyte A containing 48.84 mg/L of MgSO4.7H2O (Nacalai Tesque, 21002-85), (5) Lactoringer, (6) Veen-F (Fuso Pharma), (7) Solita-T1 (AY Pharmaceuticals), (8) Solita-T3 (AY Pharmaceuticals), (9) 5% glucose injection solution (Terumo), and (10) RPMI medium were used as the solvents for dilution of thawed cells, and the cells were incubated at 37° C. for 3 hours. In the case of (3), lactic acid was added at the same concentration as the lactate concentration in Lactoringer, and neutrality of the solution was confirmed with litmus test paper. In the case of (4), MgSO4 was added at the same concentration as the MgSO4 concentration in HBSS. Measurement was then performed by the method for staining with 7-AAD described above, and the results were analyzed with the FlowJo software. (8-4) The experiment was performed in the same manner as in (8-2), but the cells were treated by using (1) PBS, (2) Plasma-Lyte A, (3) saline (OTSUKA NORMAL SALINE, Otsuka Pharmaceutical), (4) Bicanate (Otsuka Pharmaceutical), and (5) Solacet F (Terumo) as the solvents for dilution of thawed cells. Measurement was then performed by the method for staining with 7-AAD described above, and the results were analyzed with the FlowJo software. […] Immediately after completely thawed, the cells were diluted 10-fold in (1) Plasma-Lyte A, (2) saline, (3) RPMI 1640 medium, (4) Lactoringer, (5) 0.423 mM CaCl2 prepared in Plasma-Lyte A, and (6) 1.36 mM CaCl2, and left to stand at 37° C. for 3 hours. The CaCl2 concentration of (5) was the same as that in the RPMI 1640 medium, and the CaCl2 concentration of (6) was the same as that in Lactoringer. Measurement was then performed by the method for staining with 7-AAD described above, and the results were analyzed with the FlowJo software.

Measured: Viability

C[C@H](CCC(=O)NCCS(=O)(=O)O)[C@H]1CC[C@H]2[C@@H]3[C@@H](O)C[C@@H]4C[C@H](O)CC[C@]4(C)[C@H]3CC[C@]12C [TUDCA, tauroursodeoxycholic acid dihydrate]
A (“A” means 70% or higher): Exmp. 6, pretreatment KBM + 10 μM TUDCA 2 h, thawing PlasmaLyte R.T. 1 h, then KBM 2 h | Exmp. 6, pretreatment KBM + 10 μM TUDCA 2 h, thawing PlasmaLyte R.T. 3 h | Exmp. 6, pretreatment KBM + 30 μM TUDCA 2 h, thawing PlasmaLyte R.T. 1 h, then KBM 2 h | Exmp. 6, pretreatment KBM + 30 μM TUDCA 2 h, thawing PlasmaLyte R.T. 3 h | Exmp. 6, pretreatment KBM + 90 μM TUDCA 2 h, thawing PlasmaLyte R.T. 1 h, then KBM 2 h | Exmp. 6, pretreatment KBM + 90 μM TUDCA 2 h, thawing PlasmaLyte R.T. 3 h | Exmp. 6, pretreatment KBM + 270 μM TUDCA 2 h, thawing PlasmaLyte R.T. 1 h, then KBM 2 h | Exmp. 6, pretreatment KBM + 270 μM TUDCA 2 h, thawing PlasmaLyte R.T. 3 h | Exmp. 6, pretreatment KBM + 810 μM TUDCA 2 h, thawing PlasmaLyte R.T. 1 h, then KBM 2 h | Exmp. 6, pretreatment KBM + 810 μM TUDCA 2 h, thawing PlasmaLyte R.T. 3 h | Exmp. 7, pretreatment KBM + 266 μM TUDCA 2 h, thawing PlasmaLyte + IL-2, R.T. 1 h | Exmp. 7, pretreatment KBM + 266 μM TUDCA 2 h, thawing PlasmaLyte + IL-2, R.T. 1 h, then KBM 2 h | Exmp. 7, pretreatment KBM + 266 μM TUDCA 2 h, thawing PlasmaLyte + IL-2, R.T. 3 h | Exmp. 7, pretreatment KBM + 266 μM TUDCA 2 h, thawing PlasmaLyte R.T. 1 h | Exmp. 7, pretreatment KBM + 266 μM TUDCA 2 h, thawing PlasmaLyte R.T. 1 h, then KBM 2 h | Exmp. 7, pretreatment KBM + 266 μM TUDCA 2 h, thawing PlasmaLyte R.T. 3 h | Exmp. 7, pretreatment KBM + 800 μM TUDCA 2 h, thawing PlasmaLyte + IL-2, R.T. 1 h | Exmp. 7, pretreatment KBM + 800 μM TUDCA 2 h, thawing PlasmaLyte + IL-2, R.T. 1 h, then KBM 2 h | Exmp. 7, pretreatment KBM + 800 μM TUDCA 2 h, thawing PlasmaLyte + IL-2, R.T. 3 h | Exmp. 7, pretreatment KBM + 800 μM TUDCA 2 h, thawing PlasmaLyte R.T. 1 h | Exmp. 7, pretreatment KBM + 800 μM TUDCA 2 h, thawing PlasmaLyte R.T. 1 h, then KBM 2 h | Exmp. 7, pretreatment KBM + 800 μM TUDCA 2 h, thawing PlasmaLyte R.T. 3 h | Exmp. 7, pretreatment KBM + 2400 μM TUDCA 2 h, thawing PlasmaLyte + IL-2, R.T. 1 h | Exmp. 7, pretreatment KBM + 2400 μM TUDCA 2 h, thawing PlasmaLyte + IL-2, R.T. 1 h, then KBM 2 h | Exmp. 7, pretreatment KBM + 2400 μM TUDCA 2 h, thawing PlasmaLyte + IL-2, R.T. 3 h | Exmp. 7, pretreatment KBM + 2400 μM TUDCA 2 h, thawing PlasmaLyte R.T. 1 h | Exmp. 7, pretreatment KBM + 2400 μM TUDCA 2 h, thawing PlasmaLyte R.T. 1 h, then KBM 2 h | Exmp. 7, pretreatment KBM + 2400 μM TUDCA 2 h, thawing PlasmaLyte R.T. 3 h
